Experiments:
[1] = molecular target: T1, GlpG (Escherichia coli, UniProt P09391); assay: Gel-based competitive activity-based probe profiling (competitive ABPP); assay type: biochemical, E. coli; details: for blocking of EK2 labeling of GlpG (gel-based competitive ABPP): 100 µM compound, 45 nM GlpG, 1 µM probe EK2
Experimental: For the competitive activity-based probe profiling (competitive ABPP) experiment 45 nM of rhomboid in 20 µl of 50 mM HEPES (pH 7.4) containing 10% glycerol and 0.0125% DDM were incubated for 30 min at 37°C shaking with 100 µM of the compound or an equal volume of DMSO. Then either probe EK2 or FP-R was added to a final concentration of 1 µM and incubated for further 30 min at 37°C shaking in the dark. The labeling reaction was stopped with 4× SDS-sample buffer and 10 µl of the reaction (15 ng protein per lane) was applied to a 15% SDS-polyacrylamide gel and run for 1 h 10 min at 200V. The gel was visualized on a fluorescence scanner (Typhoon, Trio +).

[2] = molecular target: T2, E. coli rhomboid GlpG (Escherichia coli, UniProt P09391); assay: biochemical
T2 sequence (P09391 whole entry): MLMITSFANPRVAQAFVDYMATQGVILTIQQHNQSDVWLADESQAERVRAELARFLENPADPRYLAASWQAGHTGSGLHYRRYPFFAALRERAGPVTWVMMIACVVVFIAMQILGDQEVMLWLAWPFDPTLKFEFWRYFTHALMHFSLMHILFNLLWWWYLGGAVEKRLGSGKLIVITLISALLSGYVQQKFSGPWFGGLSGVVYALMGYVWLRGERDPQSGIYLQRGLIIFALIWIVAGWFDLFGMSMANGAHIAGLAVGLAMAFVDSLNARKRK

[3] = molecular target: T3, bovine chymotrypsin (Bos taurus, UniProt P00766); set-up: method as in PMID 23359682; details: cited from earlier work
[4] = molecular target: T1, GlpG; assay: Substrate cleavage of fluorescently labeled TatA (Providencia stuartii) by GlpG; assay type: biochemical, E. coli; details: 100 µM compound, 500 nM GlpG, 83 nM TAMRA-labeled TatA, overnight at 37°C
Experimental: The TatA protein from Providencia stuartii was used for generation of a fluorescence substrate. The substrate was constructed to include a His6-tag for purification as well as a LPRTG-motif for sortase-mediated protein labeling. It was expressed and purified as described above. For the labeling reaction, 33 µM of the unlabeled substrate, 50 µM sortase A from S. aureus and 500 µM of the label NH2-Ala-Ala-Ahx-Lys(TAMRA) were added together in labeling buffer (50 mM Tris, pH 7.5 containing 150 mM NaCl, 10 mM CaCl2 and 0.05% (w/v) DDM) and allowed to react o/n at 37°C in the dark. […] This allowed removal of sortase and unlabeled substrate by incubation of the labeling reaction with Ni-NTA agarose beads. The supernatant was applied to a ZEBA-spin desalting column (VWR; MW-cut-off 7 kDa) to remove excess label. 40 µL of a 500 nM rhomboid solution (in 50 mM HEPES (pH 7.4) containing 10% (v/v) glycerol and 0.0125% (w/v) DDM) were incubated for 30 min at 37°C shaking with 100 µM of the compounds or DMSO. Then fluorescently labeled rhomboid substrate TatA (Providencia stuartii) was added to a final concentration of 83 nM. The cleavage reaction was allowed to take place o/n at 37°C shaking in the dark and stopped by the addition of 4× SDS-sample buffer. 10 µl of each reaction (10 ng protein per lane) was applied to a 15% SDS-polyacrylamide gel and run for 1 h 10 min at 200V. The gel was visualized on a fluorescence scanner (Typhoon, Trio +).

[5] = molecular target: T2, E. coli rhomboid GlpG; assay type: biochemical; details: 100 µM compound; for FluoPol signal, % of wild-type signal: 30 min preincubation, 75 nM FP-R, polarization at 4 h, GlpG WT = 100%, duplicate screens
[6] = molecular target: T4, bovine trypsin (Bos taurus, UniProt P00760); assay: IC50 against trypsin; assay type: biochemical; details: read-out: apparent IC50 against trypsin
T4 sequence (P00760 24-246): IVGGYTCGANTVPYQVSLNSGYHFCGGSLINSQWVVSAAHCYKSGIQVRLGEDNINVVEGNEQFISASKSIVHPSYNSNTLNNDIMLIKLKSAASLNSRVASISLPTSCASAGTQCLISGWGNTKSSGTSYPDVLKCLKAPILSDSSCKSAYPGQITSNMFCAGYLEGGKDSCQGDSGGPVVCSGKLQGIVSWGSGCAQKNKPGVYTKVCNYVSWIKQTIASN

[7] = molecular target: T3, bovine chymotrypsin; assay: IC50 against chymotrypsin; assay type: biochemical; details: for IC50: bovine chymotrypsin, read-out: apparent IC50 against chymotrypsin; for potency against GlpG compared with trypsin and chymotrypsin: comparison of apparent IC50 values
[8] = molecular target: T1, GlpG; assay type: biochemical, E. coli; details: 36 nM GlpG WT or S201A mutant, 100 µM compound, click reaction with TAMRA-azide
[9] = molecular target: GlpG from E. coli (Escherichia coli, UniProt P09391); assay type: biochemical; details: 1 µM probe, 45 nM GlpG WT or inactive S201A mutant, 30 min
GlpG from E. coli, sequence (P09391 whole entry): as the sequence (P09391 whole entry) above

T1 sequence (P09391 whole entry): as the sequence (P09391 whole entry) above

Compound	IC50 [2] [µM]	inhibition of substrate cleavage [4]	blocking of EK2 labeling of GlpG (gel-based competitive ABPP) [1]	other results
Nc1ccc2c(Cl)c(OCCc3ccccc3)oc(=O)c2c1 [S016, reference compound]	1.1 ± 0.56	–	–	prevention of probe labeling of GlpG WT by pre-inhibition ([1]; 100 µM inhibitor, 30 min, 1 µM probe EK2 or FP-R): Labeling was also prevented; potency against chymotrypsin compared with GlpG [3]: more potent against chymotrypsin than against GlpG
CCCCOc1oc(=O)c2cc(N)ccc2c1Cl [Compound 3]	0.4 ± 0.1	able to block	able to block	FluoPol signal, % of wild-type signal [5]: slightly negative
O=c1oc(OCCCCCc2ccccc2)c(Cl)c2ccc([N+](=O)[O-])cc12 [Compound 10]	5.2 ± 0.8	able to block	able to block	FluoPol signal, % of wild-type signal [5]: slightly negative
C#CCCC[C@@H]1OC(=O)[C@H]1CCCC [Compound 31]	26 ± 5.8	able to block	able to block	IC50 [6]: > 150 µM; IC50 [7]: > 50 µM; potency against GlpG compared with trypsin and chymotrypsin [7]: higher potency against GlpG than against trypsin and chymotrypsin; tandem activity-based labeling of GlpG (fluorescent gel band) [8]: Wild-type GlpG, but not the inactive S201A mutant was visualized
CN(C)c1ccc2c(-c3ccc(C(=O)NCCCn4cc(CCOc5oc(=O)c6cc(N)ccc6c5Cl)nn4)cc3C(=O)[O-])c3ccc(=[N+](C)C)cc-3oc2c1 [EK2]	–	–	–	activity-based labeling of GlpG by the probe [9]: labeled wild-type (WT) GlpG from E. coli, but not the inactive S201A mutant
Nc1ccc2c(Cl)c(OCCc3cn(Cc4ccccc4)nn3)oc(=O)c2c1 [Compound 27]	3.1 ± 0.91	able to block	able to block	–
CCCCOc1oc(=O)c2cc([N+](=O)[O-])ccc2c1Cl [Compound 11]	5.5 ± 0.55	able to block	able to block	–
vibralactone [reference compound]	–	–	–	activity against rhomboid ([5]; FluoPol ABPP screen): inactive
O=c1oc(OCCBr)c(Cl)c2ccc([N+](=O)[O-])cc12 [Compound 12]	8.4 ± 1.7	able to block	able to block	FluoPol signal, % of wild-type signal [5]: slightly negative
C#CCCCC(=O)OCC1=CC2(CC=C(C)C)C(=O)OC2C1 (stereo not shown) [Compound 43]	44 ± 10	able to block	able to block	IC50 [6]: > 150 µM; IC50 [7]: > 50 µM; potency against GlpG compared with trypsin and chymotrypsin [7]: higher potency against GlpG than against trypsin and chymotrypsin; tandem activity-based labeling of GlpG (fluorescent gel band) [8]: Wild-type GlpG, but not the inactive S201A mutant was visualized
Nc1ccc2c(Cl)c(OCCCCCc3ccccc3)oc(=O)c2c1 [Compound 2]	0.75 ± 0.21	able to block	able to block	–
